What all share (type): cell-based
The target in assay [1] is T1, human SGLT1 (Homo sapiens, UniProt P13866).
T1 construct: expressed in transfected cells; host or cells: CHO (Chinese hamster ovary) cells, stably transfected
T1 sequence (P13866 1-664): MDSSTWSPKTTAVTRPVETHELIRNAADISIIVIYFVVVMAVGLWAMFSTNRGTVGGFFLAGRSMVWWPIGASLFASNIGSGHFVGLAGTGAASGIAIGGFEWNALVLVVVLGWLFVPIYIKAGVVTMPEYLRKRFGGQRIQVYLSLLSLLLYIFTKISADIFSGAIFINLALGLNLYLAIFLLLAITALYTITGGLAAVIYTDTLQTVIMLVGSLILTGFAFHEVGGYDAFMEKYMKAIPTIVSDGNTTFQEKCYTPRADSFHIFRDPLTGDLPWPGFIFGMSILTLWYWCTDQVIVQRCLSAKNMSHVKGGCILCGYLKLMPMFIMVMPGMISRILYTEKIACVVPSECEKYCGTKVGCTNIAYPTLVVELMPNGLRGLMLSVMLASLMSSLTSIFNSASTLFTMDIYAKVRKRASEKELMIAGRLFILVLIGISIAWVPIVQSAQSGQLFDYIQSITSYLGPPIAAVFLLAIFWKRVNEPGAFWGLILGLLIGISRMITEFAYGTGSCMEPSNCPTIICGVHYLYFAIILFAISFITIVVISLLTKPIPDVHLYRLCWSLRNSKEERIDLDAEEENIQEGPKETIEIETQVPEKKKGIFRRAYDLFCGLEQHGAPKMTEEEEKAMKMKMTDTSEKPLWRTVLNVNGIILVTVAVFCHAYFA
The experiment in a line: SGLT activity (membrane translocation) by fluorescence resonance energy transfer (FRET). To be noted: for transport through hSGLT1 (FRET): result in words; for fluorescence signal ratios: hSGLT1 in CHO cells, 10 µm thioglucoside, normalized to non-transfected CHO cells, ratio higher than 1 = transported, n=16. Here is the method:
(§1) Stable transfected Chinese hamster ovary (CHO) cells that express human SGLT1 or human SGLT2 were seeded at a concentration of […] and maintained in culture for 2 days to allow the cells to form a confluent monolayer culture. For transport studies cells were seeded in 96-well microtiter scintiplates (PerkinElmer, Weisbaden, German). For fluorescence resonance energy transfer (FRET) analysis cells were seeded in flat-bottom, poly-D-lysine black-wall, clear bottom, 96-well plates (Becton Dickinson; Heidelberg, Germany).
(§2) SGLT activity, as indicated by membrane translocation, was assessed using fluorescence resonance energy transfer (FRET). Cells were incubated for 48 hours ar 37°C in a 5% CO2 atmosphere in growth medium. Cells were washed with 0.2 ml Dulbecco's phosphate-buffered saline (Invitrogen, Karlsruhe, Germany) and then incubated with 0.1 ml of a solution containing 5 µm CC2-DMPE and 0.02% pluronic acid in PBS. After incubation in the dark for 30 min at 25°C, cells were washed twice with 0.2 ml PBS. Afterwards, cells were incubated in the dark at 25°C for 30 minutes with 0.1 ml of a solution containing […] DiSBAC2(3). A t the end of the incubation period 1 mM of each thioglucoside was added and excited by 390 nm. Fluorescence emission was recorded at 460 and 580 nm. After a 20 second baseline reading, 0.1 ml of PBS containing 10 µM of each compound was added, and the fluorescence was calculated as the ratio F/F0 = [(A460/A580)/(I460/I580)] where A and I represent the reading after or before addition of each thioglucoside, respectively. For I, the readings form 2-5 seconds were averaged; and for A, readings from 3 seconds after the signal that had reached a plateau level (usually within 2-5 seconds) were also averaged. FRET values were expressed as relative fluorescence units (RFU).
(§3) The activity of the sodium-dependent D-glucose cotransport system was studied by changes in membrane potential induced by each of the eight thioglucosides (see Table 1) (10 µm). FRET values were normalized using the fluorescence signal obtained from non-transfected CHO cells.

Assay [2] deals with T2, human SGLT2 (Homo sapiens, UniProt P31639).
T2 construct: expressed in transfected cells; host or cells: CHO (Chinese hamster ovary) cells, stably transfected
T2 sequence (P31639 1-672): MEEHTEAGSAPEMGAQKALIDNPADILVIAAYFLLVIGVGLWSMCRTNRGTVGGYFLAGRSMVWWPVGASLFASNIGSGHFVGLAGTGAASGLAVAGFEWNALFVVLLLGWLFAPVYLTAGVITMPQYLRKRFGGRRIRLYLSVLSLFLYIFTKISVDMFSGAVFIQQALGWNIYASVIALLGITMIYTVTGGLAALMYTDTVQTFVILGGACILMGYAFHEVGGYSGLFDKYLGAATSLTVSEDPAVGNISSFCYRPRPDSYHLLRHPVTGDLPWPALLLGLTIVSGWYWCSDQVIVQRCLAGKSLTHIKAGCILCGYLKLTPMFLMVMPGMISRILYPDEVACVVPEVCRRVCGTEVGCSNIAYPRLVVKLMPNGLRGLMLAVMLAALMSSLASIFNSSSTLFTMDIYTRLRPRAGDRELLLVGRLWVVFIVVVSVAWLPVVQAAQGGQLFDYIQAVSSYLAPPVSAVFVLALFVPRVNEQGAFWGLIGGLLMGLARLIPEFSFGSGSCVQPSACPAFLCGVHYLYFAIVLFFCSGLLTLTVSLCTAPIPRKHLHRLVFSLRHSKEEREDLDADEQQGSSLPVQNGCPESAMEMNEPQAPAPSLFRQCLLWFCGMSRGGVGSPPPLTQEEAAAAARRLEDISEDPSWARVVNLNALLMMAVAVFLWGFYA
The description is as above. The settings on record: for transport through hSGLT2 (FRET): result in words; for fluorescence ratios: hSGLT2 in CHO cells, 10 µm thioglucoside, normalized to non-transfected CHO cells, ratio higher than 1 = transported, n=16. Here is the method:
as §1, §2, §3

Assay [3] deals with T1, human SGLT1. Kind of assay: Inhibition of sodium-dependent D-glucose transport, [14C]AMG-uptake. The settings on record: for pKi: apparent inhibitory constant, Dixon plot; for inhibitory effect, hSGLT1 compared with hSGLT2: [14C]AMG-uptake, 10µM, n=16, p<0.001, result in words. As for the experimental part:
as §1
(§4) Sodium-dependent D-glucose transport was determined by means of α-methyl [^14C]D-glucopyranoside ([^14C]AMG, spec. Radioactivity 300 mCi/mmol) purchased from NEN (Bad Homburg, Germany). For the purpose of this study, Krebs-Ringer-Henseleit (KRH) solution containing 120 mM NaCl, 4.7 mM KCI, 1.2 mM MgCl2, 2.2 mM CaCl2, 10 mM Hepes (pH 7.4 with Tris) was used to assess sodium-dependent D-glucose transport. For sodium free conditions, KRH solution containing 120 mM N-methyl-glucamine (NMG) instead of NaCl (Na^+) was used to assess sodium-independent D-glucose transport. All chemicals were purchased from Sigma (Deisenhof, Germany).
(§5) Briefly, cells were rinsed three times with 200 µl KRH-Na^+ or KRH-NMG. Then, 100 µl per well of transport buffer containing KRH-NA^+ or KRH-NMG plus [^14C]AMG (0.1 µCi/µl) were added and incubated for 1 hour. […] Then, the cells were solubilized by adding 100 µl of ATPlite substrate solution (PerkinElmer, Boston, USA) and luminescence ATP detection was assessed using a MicroBeta Trilux (PerkinElmer). A standard curve was used to determine the amount of ATP as mg of protein. After 24 hours the microtiter plate was taken for scintillation counting of radioactive [^14C]AMG-uptake using a MicroBeta Trilux (PerkinElmer). Subsequently, the mean counts per minute (cpm) were calculated and converted to […] (pmol). The obtained radioactive counts were expressed as pmol/mg/hour. Sodium-dependent [14C]AMG-uptake was calculated by subtracting uptake under sodium-free conditions from the uptake obtained in the presence of sodium.
(§6) The inhibitory effect on SGLT transport was also analyzed by IC50 values. Dixon plot analysis was used for both estimation of the inhibition constant (Ki) and for identification of the mechanism of enzyme inhibition. Ki was determined by the point of intersection of two different substrate concentrations. Plots of the reciprocal of rate of metabolite formation (1/Rate) versus inhibitor concentration at each substrate concentration were prepared.

For assay [4], the target named is T2, human SGLT2. Described as above. The settings on record: hSGLT2; for pKi: apparent inhibitory constant, Dixon plot. Here is the method: as §1, §4, §5, §6

pIC50, pKi: −log10 of the molar value. Like-named read-outs stand apart in the source and are kept apart here. Some results are limits rather than exact numbers.

Broadly, the pIC50 is the IC50 on a negative log10 scale, so that one unit is a factor of ten. The term pKi denotes the negative decadic logarithm of the Ki, by convention in mol/L. Broadly, the inhibition is the percentage by which the read-out fell short of the control.

With `Cc1ccccc1S[C@@H]1O[C@H](CO)[C@@H](O)[C@H](O)[C@H]1O` [Thioglucoside 4, o-Tolyl-1'-thio-β-D-glucopyranoside], the “transport through hSGLT1 (FRET)” value on human SGLT1 [1] was “significantly transported”. For the same compound, at human SGLT2 [2], the “transport through hSGLT2 (FRET)” value is listed as “significantly transported” and the fluorescence ratios is 1.63. At human SGLT1 [3], the negative-log IC50 (pIC50) was 4.52 and the “inhibitory effect, hSGLT1 compared with hSGLT2” value is “stronger for hSGLT1”. Moreover, at human SGLT1 [3] (Ki, hSGLT1), the pKi is 6.55. In addition, at human SGLT1 [3] (read-out: [14C]AMG-uptake, % inhibition), the inhibition at 10 µM is greater than 70%. Also, at human SGLT2 [4], the negative logarithm of the IC50 (pIC50) was 4.74 and the negative-log Ki (pKi) was 3.88.

As for `OCc1ccccc1S[C@@H]1O[C@H](CO)[C@H](O)[C@H](O)[C@H]1O` [Thioglucoside 6, 2-Hydroxymethyl-phenyl-1'-thio-β-D-galactopyranoside], the fluorescence ratios at human SGLT2 [2] turned out to be 1.32. For the same compound, the negative-log IC50 (pIC50) against human SGLT1 [3] was 3.92; on human SGLT2 [4], 4.82. Moreover, the pKi was 3.85 at human SGLT1 [3] (Ki, hSGLT1) and 8.00 at human SGLT2 [4].

Consider `Cc1cccc(S[C@@H]2O[C@H](CO)[C@@H](O)[C@H](O)[C@H]2O)c1` [Thioglucoside 8, m-Tolyl-1'-thio-β-D-glucopyranoside], for which, at human SGLT1 [1], the “transport through hSGLT1 (FRET)” value was “not transported”. For the same compound, at human SGLT2 [2], the “transport through hSGLT2 (FRET)” value is “not transported”. The pIC50 was 4.40 at human SGLT1 [3] and 4.96 against human SGLT2 [4]. Further, the pKi at human SGLT1 [3] (Ki, hSGLT1) is 6.77; at human SGLT2 [4], 7.70.

Turning to `OCc1ccccc1S[C@@H]1O[C@H](CO)[C@@H](O)[C@H](O)[C@H]1O` [Thioglucoside 2, 2-Hydroxymethyl-phenyl-1'-thio-β-D-glucopyranoside], the “transport through hSGLT1 (FRET)” value at human SGLT1 [1] was “not transported”. Also, the “transport through hSGLT2 (FRET)” value at human SGLT2 [2] is given as “not transported”. The values for the negative-log IC50 (pIC50) against human SGLT1 [3] and against human SGLT2 [4] were 4.39 and 5.05, respectively. For the same compound, the pKi is 3.42 on human SGLT1 [3] (Ki, hSGLT1) and 8.00 on human SGLT2 [4]. On human SGLT1 [3], the “inhibitory effect, hSGLT1 compared with hSGLT2” value was “stronger for hSGLT1”.

For `OCc1cccc(S[C@@H]2O[C@H](CO)[C@@H](O)[C@H](O)[C@H]2O)c1` [Thioglucoside 5, 3-Hydroxymethyl-phenyl-1'-thio-β-D-glucopyranoside], the fluorescence signal ratios on human SGLT1 [1] worked out at 1.01. The pIC50 on human SGLT1 [3] was 4.33; at human SGLT2 [4] it was 4.92. In addition, the pKi on human SGLT1 [3] (Ki, hSGLT1) was 6.92; at human SGLT2 [4], 7.70.

`O=C(CCc1ccc(O)cc1)c1c(O)cc(O)cc1O[C@@H]1O[C@H](CO)[C@@H](O)[C@H](O)[C@H]1O` [phlorizin, reference compound]: the “transport through hSGLT2 (FRET)” value on human SGLT2 [2] is recorded as “not transported”.

As to `C/C(=C\CC/C(C)=C/CS[C@@H]1O[C@H](CO)[C@@H](O)[C@H](O)[C@H]1O)CO` [Thioglucoside 1, 8-Hydroxygeranol-1'-thio-β-D-glucopyranoside], the “transport through hSGLT1 (FRET)” value on human SGLT1 [1] is on record as “not transported”. Also, the “transport through hSGLT2 (FRET)” value at human SGLT2 [2] was “not transported”. Further, on human SGLT1 [3], the “inhibitory effect, hSGLT1 compared with hSGLT2” value is “stronger for hSGLT1”. Besides, the negative-log Ki (pKi) was 7.00 on human SGLT1 [3] (hSGLT1, read-out: Ki) and 7.52 at human SGLT2 [4]. In addition, the pIC50 on human SGLT1 [3] (hSGLT1, read-out: IC50) was 4.46; against human SGLT2 [4] it was 4.92.

On to `OC[C@H]1O[C@@H](Sc2ccccc2)[C@H](O)[C@@H](O)[C@@H]1O` [Thioglucoside 3, Phenyl-1'-thio-β-D-glucopyranoside], for which, at human SGLT1 [1], the “transport through hSGLT1 (FRET)” value is on record as “significantly transported” and the fluorescence signal ratios turned out to be 1.15. Also, on human SGLT2 [2], the “transport through hSGLT2 (FRET)” value is recorded as “significantly transported” and the fluorescence ratios came to 1.21. On human SGLT1 [3], the negative logarithm of the IC50 (pIC50) is 5.40 and the “inhibitory effect, hSGLT1 compared with hSGLT2” value is given as “stronger for hSGLT1”. At human SGLT1 [3] (Ki, hSGLT1), the negative-log Ki (pKi) is 7.10. In addition, on human SGLT2 [4], the pIC50 is 4.80 and the pKi was 3.87.

For `Cc1ccc(S[C@@H]2O[C@H](CO)[C@@H](O)[C@H](O)[C@H]2O)cc1` [Thioglucoside 7, p-Tolyl-1'-thio-β-D-glucopyranoside], on human SGLT1 [1], the “transport through hSGLT1 (FRET)” value was “significantly transported” and the fluorescence signal ratios is 2.64. Besides, at human SGLT2 [2], the “transport through hSGLT2 (FRET)” value is reported as “significantly transported” and the fluorescence ratios stood at 4.22. The compound further gave a pIC50 against human SGLT1 [3] of 4.28. In addition, on human SGLT1 [3] (Ki, hSGLT1), the pKi was 4.64. For the same compound, on human SGLT2 [4], the pIC50 is 4.49 and the pKi is 3.76. For the same compound, on human SGLT2 [4] (10µM, n=16), the inhibition at 10 µM is greater than 70%.

The record behind these values is EP1854806A1, “Thioglycosides as pharmaceutically active agents” (MPG Max-Planck-Gesellschaft zur Förderung der …, priority 2006, dated 2007).
